Test results taken from US20260315452A1, “PROTEASE INHIBITORS AND USES THEREOF” (priority 2023, published 2026).
Where a name gives a salt, the structure may show the parent alone.

How the values were obtained:
SARS-CoV-2 3CLpro = SARS-CoV-2 3CLpro (Severe acute respiratory syndrome coronavirus 2, UniProt P0DTD1); experiment: biochemical; settings: inhibition of SARS-CoV-2 3CLpro; 15 nM 3CLpro, 25 μM fluorogenic substrate, 37° C.; read-out: Inhibitory Activity (IC50)
SARS-CoV-2 = experiment: Anti-SARS-CoV-2 activity in A549 cells expressing the human ACE2 receptor (inhibition of SARS-CoV-2 replication); format: cell-based; settings: for EC50: Severe acute respiratory syndrome coronavirus 2, A549-ACE2, 24 h, read-out: Antiviral Activity (EC50)

O=C(NC1CC(F)(F)C1)c1cc(Br)cc([N+](=O)[O-])c1N1CCC2(CCN(C(=O)c3cncc4ccccc34)C2)C1 (centres unmarked) [Compound 26, 5-bromo-N-(3,3-difluorocyclobutyl)-2-(7-(isoquinoline-4-carbonyl)-2,7-diazaspiro[4.4]nonan-2-yl)-3-nitrobenzamide]
IC50 (SARS-CoV-2 3CLpro): < 100 nM
EC50 (SARS-CoV-2): 100 to 1000 nM

O=C(c1cc(Br)cc([N+](=O)[O-])c1N[C@H]1CN(C(=O)c2cncc3ccccc23)CCC1(F)F)N1CC(O)C1 [Compound 139, (S)-(5-bromo-2-((4,4-difluoro-1-(isoquinoline-4-carbonyl)piperidin-3-yl)amino)-3-nitrophenyl)(3-hydroxyazetidin-1-yl)methanone]
IC50 (SARS-CoV-2 3CLpro): < 100 nM
EC50 (SARS-CoV-2): < 100 nM

C[C@H](NC(=O)c1cc(Br)cc([N+](=O)[O-])c1N[C@@H]1COCC[C@@H]1NC(=O)c1cncc2ccccc12)C(F)(F)F [Compound 135, N-((3S, 4S)-3-((4-bromo-2-nitro-6-(((S)-1,1,1-trifluoropropan-2-yl)carbamoyl)phenyl)amino)tetrahydro-2H-pyran-4-yl)isoquinoline-4-carboxamide]
IC50 (SARS-CoV-2 3CLpro): < 100 nM
EC50 (SARS-CoV-2): < 100 nM

CNC1CN(C(=O)c2cc(Br)cc([N+](=O)[O-])c2N[C@H]2CN(C(=O)c3cncc4ccccc34)CCC2(F)F)C1 [Compound 95, (S)-(5-bromo-2-((4,4-difluoro-1-(isoquinoline-4-carbonyl)piperidin-3-yl)amino)-3-nitrophenyl)(3-(methylamino)azetidin-1-yl)methanone hydrochloride]
IC50 (SARS-CoV-2 3CLpro): < 100 nM
EC50 (SARS-CoV-2): < 100 nM

O=C(NC1CC1)c1cc(Br)cc([N+](=O)[O-])c1N[C@H]1CN(C(=O)c2cncc3ccccc23)CCC1(F)F [Compound 147, (S)-5-bromo-N-cyclopropyl-2-((4,4-difluoro-1-(isoquinoline-4-carbonyl)piperidin-3-yl)amino)-3-nitrobenzamide]
IC50 (SARS-CoV-2 3CLpro): < 100 nM
EC50 (SARS-CoV-2): < 100 nM

O=C(c1cc(Cl)cc([N+](=O)[O-])c1N[C@H]1CN(C(=O)c2cncc3ccccc23)CCC1(F)F)N1CC(F)(F)C1 [Compound 143, (S)-(5-chloro-2-((4,4-difluoro-1-(isoquinoline-4-carbonyl)piperidin-3-yl)amino)-3-nitrophenyl)(3,3-difluoroazetidin-1-yl)methanone]
IC50 (SARS-CoV-2 3CLpro): < 100 nM
EC50 (SARS-CoV-2): < 100 nM

O=C(NC1CC1)c1cc(Cl)cc(C(F)(F)F)c1N[C@H]1CN(C(=O)c2cncc3ccccc23)CCC1(F)F [Compound 83, (S)-5-chloro-N-cyclopropyl-2-((4,4-difluoro-1-(isoquinoline-4-carbonyl)piperidin-3-yl)amino)-3-(trifluoromethyl)benzamide]
IC50 (SARS-CoV-2 3CLpro): < 100 nM
EC50 (SARS-CoV-2): < 100 nM

CNC(=O)c1cc(Br)cc([N+](=O)[O-])c1N[C@@H]1CCCC[C@@H]1NC(=O)c1cncc2ccncc12 [Compound 55, N-((1S, 2R)-2-((4-bromo-2-(methylcarbamoyl)-6-nitrophenyl)amino)cyclohexyl)-2,6-naphthyridine-4-carboxamide]
IC50 (SARS-CoV-2 3CLpro): 100 to 1000 nM
EC50 (SARS-CoV-2): 100 to 1000 nM

O=C(NC1(C(F)(F)F)CC1)c1cc(Br)cc([N+](=O)[O-])c1N[C@@H]1CCCC[C@@H]1NC(=O)c1cncc2ccccc12 [Compound 16, N-((1S, 2R)-2-((4-bromo-2-nitro-6-((1-(trifluoromethyl)cyclopropyl)carbamoyl)phenyl)amino)cyclohexyl)isoquinoline-4-carboxamide]
IC50 (SARS-CoV-2 3CLpro): 100 to 1000 nM
EC50 (SARS-CoV-2): 1000 to 10000 nM

O=C(NC1CC(F)(F)C1)c1cc(Br)cc([N+](=O)[O-])c1N[C@@H]1COCC[C@@H]1NC(=O)c1cncc2ccccc12 [Compound 126, N-((3S, 4S)-3-((4-bromo-2-((3,3-difluorocyclobutyl)carbamoyl)-6-nitrophenyl)amino)tetrahydro-2H-pyran-4-yl)isoquinoline-4-carboxamide]
IC50 (SARS-CoV-2 3CLpro): < 100 nM
EC50 (SARS-CoV-2): < 100 nM

CC(C)(O)CNC(=O)c1cc(Cl)cc([N+](=O)[O-])c1N[C@H]1CN(C(=O)c2cncc3ccccc23)CCC1(F)F [Compound 40, (S)-5-chloro-2-((4,4-difluoro-1-(isoquinoline-4-carbonyl)piperidin-3-yl)amino)-N-(2-hydroxy-2-methylpropyl)-3-nitrobenzamide]
IC50 (SARS-CoV-2 3CLpro): < 100 nM
EC50 (SARS-CoV-2): < 100 nM

CNC(=O)c1cc(Br)cc([N+](=O)[O-])c1N[C@@H]1CCCC[C@@H]1NC(=O)c1cncc(C(F)(F)F)c1 [Compound 72, N-((1S, 2R)-2 ((4-bromo-2-(methylcarbamoyl)-6-nitrophenyl)amino)cyclohexyl)-5-(trifluoromethyl)nicotinamide]
IC50 (SARS-CoV-2 3CLpro): 1000 to 10000 nM
EC50 (SARS-CoV-2): > 10000 nM

CNC(=O)c1cc(Br)cc([N+](=O)[O-])c1N[C@@H]1CCN(C(=O)c2cncc3ccccc23)C1 [Compound 64, (R)-5-bromo-2-((1-(isoquinoline-4-carbonyl)pyrrolidin-3-yl)amino)-N-methyl-3-nitrobenzamide]
IC50 (SARS-CoV-2 3CLpro): 100 to 1000 nM
EC50 (SARS-CoV-2): 100 to 1000 nM

CC(C)(C)NC(=O)c1cc(Br)cc([N+](=O)[O-])c1N[C@@H]1CCCC[C@@H]1NC(=O)c1cncc2ccccc12 [Compound 85, N-((1S, 2R)-2-((4-bromo-2-(tert-butylcarbamoyl)-6-nitrophenyl)amino)cyclohexyl)isoquinoline-4-carboxamide]
IC50 (SARS-CoV-2 3CLpro): 100 to 1000 nM
EC50 (SARS-CoV-2): 100 to 1000 nM

CNC(=O)c1cc(Br)cc([N+](=O)[O-])c1N[C@@H]1COCC[C@@H]1NC(=O)c1cncc2ccccc12 [Compound 132, N-((3S, 4S)-3-((4-bromo-2-(methylcarbamoyl)-6-nitrophenyl)amino)tetrahydro-2H-pyran-4-yl)isoquinoline-4-carboxamide]
IC50 (SARS-CoV-2 3CLpro): < 100 nM
EC50 (SARS-CoV-2): < 100 nM

CN(C)C(=O)c1cc(Br)cc([N+](=O)[O-])c1N[C@H]1CN(C(=O)c2cncc3ccccc23)CCC1(F)F [Compound 151, (S)-5-bromo-2-((4,4-difluoro-1-(isoquinoline-4-carbonyl)piperidin-3-yl)amino)-N, N-dimethyl-3-nitrobenzamide]
IC50 (SARS-CoV-2 3CLpro): < 100 nM
antiviral potency in A549 cells in comparison with compound Ref-2 (SARS-CoV-2; A549 cells, versus Ref-2 (FIG. 7)): better antiviral potency
EC50 (SARS-CoV-2): < 100 nM

O=C(NC1CC(F)(F)C1)c1cc(Cl)cc([N+](=O)[O-])c1N[C@H]1CN(C(=O)c2cncc3ccccc23)CCC1(F)F [Compound 158, (S)-5-chloro-2-((4,4-difluoro-1-(isoquinoline-4-carbonyl)piperidin-3-yl)amino)-N-(3,3-difluorocyclobutyl)-3-nitrobenzamide]
IC50 (SARS-CoV-2 3CLpro): < 100 nM
EC50 (SARS-CoV-2): < 100 nM

O=C(NC1CC1)c1cc(Br)cc([N+](=O)[O-])c1N[C@@H]1CCCN(C(=O)c2cncc3ccccc23)C1 [Compound 125, (R)-5-bromo-N-cyclopropyl-2-((1-(isoquinoline-4-carbonyl)piperidin-3-yl)amino)-3-nitrobenzamide]
IC50 (SARS-CoV-2 3CLpro): < 100 nM
EC50 (SARS-CoV-2): < 100 nM

CNC(=O)c1cc(Br)cc([N+](=O)[O-])c1NC1CN(C(=O)c2cncc3ccccc23)CC1(F)F (centres unmarked) [Compound 18, 5-bromo-2-((4,4-difluoro-1-(isoquinoline-4-carbonyl)pyrrolidin-3-yl)amino)-N-methyl-3-nitrobenzamide]
IC50 (SARS-CoV-2 3CLpro): 100 to 1000 nM
EC50 (SARS-CoV-2): 100 to 1000 nM

O=C(NC1CC(F)(F)C1)c1cc(Br)cc([N+](=O)[O-])c1N[C@@H]1CCCN(C(=O)c2cncc3ccccc23)C1 [Compound 34, (R)-5-bromo-N-(3,3-difluorocyclobutyl)-2-((1-(isoquinoline-4-carbonyl)piperidin-3-yl)amino)-3-nitrobenzamide]
IC50 (SARS-CoV-2 3CLpro): < 100 nM
EC50 (SARS-CoV-2): < 100 nM
